From the NIST ThermoML archive (doi:10.1021/je200811n)

Conditions: Hot wire method

C=C(F)C(F)(F)F [2,3,3,3-tetrafluoro-1-propene]
Conditions | thermal conductivity [W/m/K]
272.85 K, 247 kPa, Gas | 0.01156
272.89 K, 200 kPa, Gas | 0.01156
272.97 K, 145 kPa, Gas | 0.0116
273.04 K, 106 kPa, Gas | 0.01162
273.14 K, 261 kPa, Gas | 0.01159
273.17 K, 273 kPa, Gas | 0.01162
273.19 K, 247 kPa, Gas | 0.01159
273.26 K, 200 kPa, Gas | 0.0116
273.35 K, 144 kPa, Gas | 0.01162
273.44 K, 105 kPa, Gas | 0.01163
273.46 K, 258 kPa, Gas | 0.01159
273.55 K, 274 kPa, Gas | 0.01163
273.58 K, 248 kPa, Gas | 0.01163
273.64 K, 200 kPa, Gas | 0.0116
273.76 K, 142 kPa, Gas | 0.01165
273.82 K, 255 kPa, Gas | 0.01165
273.87 K, 104 kPa, Gas | 0.01165
274.2 K, 253 kPa, Gas | 0.01169
281.36 K, 838 kPa, Liquid | 0.06988
281.38 K, 860 kPa, Liquid | 0.06977
281.41 K, 5779 kPa, Liquid | 0.07285
281.44 K, 10941 kPa, Liquid | 0.07602
281.46 K, 841 kPa, Liquid | 0.06981
281.48 K, 862 kPa, Liquid | 0.06968
281.51 K, 5779 kPa, Liquid | 0.07276
281.54 K, 10939 kPa, Liquid | 0.07609
281.66 K, 86 kPa, Gas | 0.01256
281.66 K, 204 kPa, Gas | 0.01278
281.79 K, 859 kPa, Liquid | 0.06833
281.83 K, 10935 kPa, Liquid | 0.07514
281.88 K, 202 kPa, Gas | 0.01259
281.89 K, 87 kPa, Gas | 0.01239
281.89 K, 843 kPa, Liquid | 0.06853
281.93 K, 861 kPa, Liquid | 0.06844
281.93 K, 5767 kPa, Liquid | 0.07189
281.94 K, 10934 kPa, Liquid | 0.07471
281.98 K, 15950 kPa, Liquid | 0.07767
282.01 K, 15964 kPa, Liquid | 0.07708
282.11 K, 200 kPa, Gas | 0.0125
282.13 K, 88 kPa, Gas | 0.01231
282.23 K, 841 kPa, Liquid | 0.06878
282.25 K, 20590 kPa, Liquid | 0.0797
282.26 K, 866 kPa, Liquid | 0.06872
282.26 K, 5764 kPa, Liquid | 0.07204
282.26 K, 10935 kPa, Liquid | 0.07477
282.27 K, 15954 kPa, Liquid | 0.07706
282.31 K, 15965 kPa, Liquid | 0.0773
282.35 K, 198 kPa, Gas | 0.01243
282.38 K, 90 kPa, Gas | 0.01224
282.4 K, 841 kPa, Liquid | 0.06858
282.4 K, 5763 kPa, Liquid | 0.07193
282.4 K, 10935 kPa, Liquid | 0.07479
282.41 K, 864 kPa, Liquid | 0.0687
282.41 K, 15954 kPa, Liquid | 0.07738
282.44 K, 15967 kPa, Liquid | 0.07756
282.56 K, 395 kPa, Gas | 0.01244
282.61 K, 196 kPa, Gas | 0.01241
282.61 K, 308 kPa, Gas | 0.01242
282.64 K, 91 kPa, Gas | 0.01218
282.66 K, 20587 kPa, Liquid | 0.07986
282.71 K, 204 kPa, Gas | 0.0124
282.74 K, 5763 kPa, Liquid | 0.07185
282.74 K, 10939 kPa, Liquid | 0.07487
282.74 K, 15951 kPa, Liquid | 0.07763
282.75 K, 834 kPa, Liquid | 0.06855
282.77 K, 860 kPa, Liquid | 0.06866
282.77 K, 15964 kPa, Liquid | 0.07774
282.81 K, 20585 kPa, Liquid | 0.07986
282.87 K, 396 kPa, Gas | 0.01251
282.89 K, 10938 kPa, Liquid | 0.07473
282.9 K, 15949 kPa, Liquid | 0.07751
282.92 K, 87 kPa, Gas | 0.01242
282.92 K, 5765 kPa, Liquid | 0.07169
282.93 K, 832 kPa, Liquid | 0.06832
282.93 K, 15964 kPa, Liquid | 0.07755
282.94 K, 309 kPa, Gas | 0.01248
282.96 K, 859 kPa, Liquid | 0.06843
283.07 K, 203 kPa, Gas | 0.01237
283.22 K, 396 kPa, Gas | 0.01252
283.24 K, 15950 kPa, Liquid | 0.07752
283.25 K, 10936 kPa, Liquid | 0.07481
283.26 K, 15963 kPa, Liquid | 0.07747
283.26 K, 20587 kPa, Liquid | 0.07981
283.28 K, 5763 kPa, Liquid | 0.07184
283.3 K, 309 kPa, Gas | 0.01244
283.3 K, 832 kPa, Liquid | 0.06845
283.33 K, 86 kPa, Gas | 0.01249
283.33 K, 857 kPa, Liquid | 0.0685
283.43 K, 15951 kPa, Liquid | 0.07738
283.45 K, 10934 kPa, Liquid | 0.07455
283.45 K, 20590 kPa, Liquid | 0.07959
283.46 K, 201 kPa, Gas | 0.01238
283.46 K, 15962 kPa, Liquid | 0.07733
283.49 K, 5765 kPa, Liquid | 0.07154
283.53 K, 830 kPa, Liquid | 0.06815
283.56 K, 855 kPa, Liquid | 0.06813
283.59 K, 396 kPa, Gas | 0.01244
283.69 K, 309 kPa, Gas | 0.01251

Liquid
Conditions | thermal conductivity [W/m/K]
273.15 K | 0.07159
283.15 K | 0.06833
